We go through 3 compounds from paper PMC10215400 (Antibiotics, 2023).

Test [1] concerns the target T1, KPC-2 β-lactamase D179Y variant (Klebsiella pneumoniae, UniProt Q93LQ9, D178Y). The format is binding.
Test [2] addresses T2, KPC-2 β-lactamase D179N variant (Klebsiella pneumoniae, UniProt Q93LQ9, D178N). The experiment in a line: time-based mass spectrometry ([…]). The format is binding.
Test [3] has as its target T1, KPC-2 β-lactamase D179Y variant. Put plainly: time-based mass spectrometry of acyl-complex ([…]); no turnover in stopped-flow. The format is binding.
Test [4] concerns the target T2, KPC-2 β-lactamase D179N variant. The experiment in a line: stopped-flow hydrolysis progress curves with purified enzyme; timed mass spectrometry. It counts as biochemical.
A further test addresses KPC-2 β-lactamase (Klebsiella pneumoniae, UniProt Q93LQ9). The experiment in a line: stopped-flow hydrolysis progress curves with purified enzyme. It counts as biochemical.

T1 sequence (Q93LQ9 25-293 D178Y): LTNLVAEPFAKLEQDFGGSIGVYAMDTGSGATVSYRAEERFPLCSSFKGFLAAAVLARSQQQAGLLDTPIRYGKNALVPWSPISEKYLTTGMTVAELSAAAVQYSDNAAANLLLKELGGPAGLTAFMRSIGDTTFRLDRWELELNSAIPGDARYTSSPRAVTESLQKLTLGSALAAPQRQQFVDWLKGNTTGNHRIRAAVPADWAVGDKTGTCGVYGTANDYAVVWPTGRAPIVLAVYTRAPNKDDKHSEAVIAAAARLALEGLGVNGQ
T2 sequence (Q93LQ9 25-293 D178N): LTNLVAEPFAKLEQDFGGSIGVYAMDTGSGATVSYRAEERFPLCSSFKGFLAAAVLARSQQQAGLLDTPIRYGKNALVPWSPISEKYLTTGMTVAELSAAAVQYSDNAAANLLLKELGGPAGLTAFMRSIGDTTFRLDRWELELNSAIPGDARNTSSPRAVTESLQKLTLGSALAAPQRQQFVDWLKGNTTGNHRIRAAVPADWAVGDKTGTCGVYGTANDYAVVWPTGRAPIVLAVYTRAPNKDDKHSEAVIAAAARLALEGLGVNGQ
Chain of KPC-2 β-lactamase (Q93LQ9 25-293 limits assumed): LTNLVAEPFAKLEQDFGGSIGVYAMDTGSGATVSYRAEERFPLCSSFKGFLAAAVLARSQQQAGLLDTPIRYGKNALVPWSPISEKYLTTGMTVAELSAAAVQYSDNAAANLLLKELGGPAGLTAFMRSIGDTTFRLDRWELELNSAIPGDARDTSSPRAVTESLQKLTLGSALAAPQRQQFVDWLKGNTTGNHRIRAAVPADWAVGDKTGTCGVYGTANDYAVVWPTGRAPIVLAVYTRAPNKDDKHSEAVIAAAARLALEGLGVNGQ

Take `O=C(NC1CCNCC1)[C@@H]1CC[C@@H]2CN1C(=O)N2OS(=O)(=O)O` [relebactam]: the “time-based mass spectrometry of acyl-complex (1:1)” value in test [1] is given as “relebactam is slower to form an acyl complex with the D179Y variant compared to avibactam”.
Turning to `NC(=O)[C@@H]1CC[C@@H]2CN1C(=O)N2OS(=O)(=O)O` [avibactam], the “time-based mass spectrometry of acyl-complex (1:1)” value in test [1] is listed as “relebactam is slower to form an acyl complex with the D179Y variant compared to avibactam”. The “time-based mass spectrometry (1:1)” value in test [2] is “Relebactam and avibactam behaved similarly vs. the D179N variant”.
For the compound `C[C@@H](O)[C@H]1C(=O)N2C(C(=O)O)=C(SCCN=CN)C[C@H]12` [imipenem], in test [3], the “time-based mass spectrometry of acyl-complex (1:1); no turnover in stopped-flow” value is “acyl-complexes with imipenem and ceftazidime with the D179N variant was captured less often compared to the D179Y variant”. The “stopped-flow hydrolysis progress curves with purified enzyme; timed mass spectro” value in test [4] was “KPC-2 (blue line) and the D179N variant (yellow line) both hydrolyzed imipenem”. The “stopped-flow hydrolysis progress curves with purified enzyme” value on KPC-2 β-lactamase was “KPC-2 (blue line) and the D179N variant (yellow line) both hydrolyzed imipenem”.
